In publication PMC5543288, “Psychostimulant Effect of the Synthetic Cannabinoid JWH-018 and AKB48: Behavioral, Neurochemical, and Dopamine Transporter Scan Imaging Studies in Mice” (Frontiers in Psychiatry, 2017):
Where a name gives a salt, the structure may show the parent alone. Read-outs that look alike come from different tables or passages of the source.

Legend:
human DAT = biological target: T1, human DAT (Homo sapiens, UniProt Q01959); experiment: [3H]-WIN 35,428 competition binding, CHO membranes transfected with human DAT
T1 construct: purchased Perkin Elmer; host or cells: CHO cells transfected with human DAT (membrane preparation)
T1 sequence (Q01959 whole entry): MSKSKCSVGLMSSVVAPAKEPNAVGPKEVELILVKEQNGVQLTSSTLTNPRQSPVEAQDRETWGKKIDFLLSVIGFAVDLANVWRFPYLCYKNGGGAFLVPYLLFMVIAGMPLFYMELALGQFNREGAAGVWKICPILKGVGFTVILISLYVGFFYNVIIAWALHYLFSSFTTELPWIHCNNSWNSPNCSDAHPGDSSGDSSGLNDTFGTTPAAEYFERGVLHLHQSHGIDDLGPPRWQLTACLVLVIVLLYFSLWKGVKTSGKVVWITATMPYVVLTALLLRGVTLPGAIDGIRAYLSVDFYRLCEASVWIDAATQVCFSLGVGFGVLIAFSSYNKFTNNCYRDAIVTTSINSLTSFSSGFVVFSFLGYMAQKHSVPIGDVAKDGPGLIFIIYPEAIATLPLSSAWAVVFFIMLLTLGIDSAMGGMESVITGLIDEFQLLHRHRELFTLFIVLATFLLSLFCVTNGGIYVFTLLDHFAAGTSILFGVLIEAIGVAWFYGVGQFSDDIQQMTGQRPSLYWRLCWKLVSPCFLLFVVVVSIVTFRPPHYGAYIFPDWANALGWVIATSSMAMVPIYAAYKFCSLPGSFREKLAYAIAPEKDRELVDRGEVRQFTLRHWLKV
Description: At the end of the incubation time, bound and free radioactivity were separated by filtering the assay mixture through Whatman GF/B glass fiber filters in a Brandel cell harvester (Brandel, Unterföhring, Germany).

mouse DAT = biological target: T2, mouse DAT (Mus musculus, UniProt Q61327); experiment: [3H]-WIN 35,428 competition binding, mouse striatal synaptosomes
T2 construct: DAT expressed in mouse striatal nerve terminals; from tissue; host or cells: mouse striatum, crude synaptosomal (P2) fraction
T2 sequence (Q61327 whole entry): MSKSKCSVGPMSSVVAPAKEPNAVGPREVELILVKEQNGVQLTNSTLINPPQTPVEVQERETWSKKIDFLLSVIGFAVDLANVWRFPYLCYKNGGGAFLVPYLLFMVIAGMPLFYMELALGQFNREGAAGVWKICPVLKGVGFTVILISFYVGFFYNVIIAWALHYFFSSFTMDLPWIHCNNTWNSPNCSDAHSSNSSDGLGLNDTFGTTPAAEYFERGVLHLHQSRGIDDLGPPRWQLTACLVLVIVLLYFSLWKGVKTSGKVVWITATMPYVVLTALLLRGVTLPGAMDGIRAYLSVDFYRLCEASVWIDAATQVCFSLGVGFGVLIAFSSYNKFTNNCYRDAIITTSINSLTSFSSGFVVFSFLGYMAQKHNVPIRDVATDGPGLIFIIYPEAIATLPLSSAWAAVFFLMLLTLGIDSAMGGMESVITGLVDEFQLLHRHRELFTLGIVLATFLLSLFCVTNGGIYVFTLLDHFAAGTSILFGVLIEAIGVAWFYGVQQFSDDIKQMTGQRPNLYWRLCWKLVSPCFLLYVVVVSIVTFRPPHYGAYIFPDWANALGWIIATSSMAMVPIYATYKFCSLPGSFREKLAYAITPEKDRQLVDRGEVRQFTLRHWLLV
Description: Competition binding experiments were carried out incubating 8 nM [^3H]-WIN 35,428 (specific activity 84 Ci/mmol; Perkin Elmer, Boston, MA, USA) with CHO membranes transfected with human DAT (Perkin Elmer) or mouse striatal synaptosomes with different concentration of the examined compounds for 120 min at 4°C. Non-specific binding was determined in the presence of 1 µM GBR 12783. At the end of the incubation time, bound and free radioactivity were separated by filtering the assay mixture through Whatman GF/B glass fiber filters in a Brandel cell harvester (Brandel, Unterföhring, Germany). Filter bound radioactivity was counted in a Perkin Elmer 2810TR scintillation counter (Perkin Elmer).
(§1) On the day of the experiment, the animal was euthanized, the brain was rapidly removed, and both striata isolated. Thereafter, a crude synaptosomal (P2) fraction was prepared as follows: the striata were suspended in ice-cold buffered sucrose solution (0.32 M, pH 7.4) and homogenized. The homogenate was centrifuged (10 min, 2,100 g, 4°C) to remove nuclei and debris. The supernatant was further centrifuged at 13,500 g for 20 min at 4°C. For [^3H]-WIN 35,428 binding experiments, the P2 pellet was resuspended in 50 mM Tris–HCl, 100 mM NaCl, pH 7.4. For [^3H]-DA release experiments, the P2 pellet was then resuspended in 5 ml of Kreb’s solution (mM: NaCl 118; KCl 4.4; CaCl2 1.2; MgSO4 1.2; KH2PO4 1.2; NaHCO3 25; glucose 10), gassed 20 min with a mixture of 95% O2 plus 5% CO2 containing [^3H]-DA (50 nM; Perkin Elmer, Monza, Italy), disodium EDTA (0.03 mM), and ascorbic acid (0.05 mM; to prevent [^3H]-DA degradation).

male CD-1 mice = experiment: Spontaneous locomotor activity (ANY-maze video tracking); assay type: in vivo, mouse; conditions: for facilitation of spontaneous locomotion after pretreatment with AM 251 / facilitation of spontaneous locomotion after coadministration of SCH23390 and haloperidol: JWH-018 0.3 mg/kg; for facilitation of spontaneous locomotion after pretreatment with AM 251 / facilitation of spontaneous locomotion after coadministration of SCH23390 and haloperidol / time in the central zone versus peripheral area of the cage / total distance traveled (spontaneous locomotion) / duration of the increase of spontaneous locomotion: AKB48 1 mg/kg; for facilitation of spontaneous locomotion after pretreatment with AM 251: AM 251 1 mg/kg i.p. 20 min before; for facilitation of spontaneous locomotion after coadministration of SCH23390 and haloperidol: SCH23390 0.1 mg/kg i.p. + haloperidol 0.05 mg/kg i.p. 20 min before; for time in the central zone versus peripheral area of the cage / immobility time / total distance traveled (spontaneous locomotion) / duration of the increase of spontaneous locomotion: acute i.p.: JWH-018 0.3 mg/kg; for immobility time: AKB48 1 mg/kg (30 min after administration); for immobility time / total distance traveled (spontaneous locomotion): amphetamine 10 mg/kg; for immobility time / total distance traveled (spontaneous locomotion) / duration of the increase of spontaneous locomotion / time spent in the peripheral arena: cocaine 20 mg/kg; for total distance traveled (spontaneous locomotion): monitored 240 min; for spontaneous locomotion, antagonist by itself: AM 251 1 mg/kg i.p., SCH23390 0.1 mg/kg i.p., haloperidol 0.05 mg/kg i.p.; for time spent in the peripheral arena: acute i.p.: amphetamine 10 mg/kg
Description: Drugs were administered by intraperitoneal injection in a volume of 4 μl/g. The used doses of JWH-018 (0.3 and 1 mg/kg i.p.) and AKB48 (0.3 and 1 mg/kg i.p.) were chosen based on previous studies ([6], [7], [9], [10]).
The spontaneous locomotor activity was measured by using the ANY-maze video tracking system (Ugo Basile, application version 4.99 g Beta). The mouse was placed in a square plastic cage (60 cm × 60 cm) located in a sound- and light-attenuated room and motor activity was monitored for 240 min. Four mice were monitored in parallel in each experiment. Parameters measured were distance traveled (meter), total time in the peripheral zone (seconds), total time in the central zone (seconds), and immobility time (seconds; the animal was considered immobile when 95% of his image remained in the same place for at least 2 s). Parameters were analyzed every 15 min for a maximum of 240 min and to avoid mice olfactory cues, cages were carefully cleaned with a dilute (5%) ethanol solution and washed with water between animal trials. All experiments were performed between 9:00 a.m. and 1:00 p.m.

[1] = biological target: T3, dopamine transporter (DAT) in the mouse striatum (Mus musculus, UniProt Q61327); experiment: In vivo DaTSCAN SPECT-CT imaging, striatal [123I]-FP-CIT binding; conditions: i.p. 30 min before tracer: cocaine 20 mg/kg, amphetamine 10 mg/kg, JWH-018 1 mg/kg, AKB48 1 mg/kg
T3 construct: from tissue; host or cells: striatum of living CD-1 male mice (in vivo imaging)
T3 sequence (Q61327 whole entry): as above
Description: 18 CD-1 male mice were divided into six different groups (three mice per treatment). […] A control group (i.e., naïve untreated mice) was also included in the study. Thirty minutes after drug administration, all mice were submitted to an intravenous injection with a solution of [^123I]-DaTSCAN (15–20 MBq, ≤200 µl). The body temperature of the animals was maintained at 37°C during the imaging sessions and under the cage, between imaging sessions, using a heating lamp. The SPECT–CT whole-body images were acquired at 1 h and 30 min after [^123I]-FP-CIT injection, with the initial tomographic acquisition starting nearly 15 min after the injection. Each SPECT-CT whole-body acquisition consisted of one bed positions (36 mm), 60 min, 128 views over 360 ([35]). The used energy window is 119–219 keV and the images were reconstructed by using the iterative EM-ML algorithm, including the collimator response. CT images have been acquired, using the digital X-ray imaging system integrated into the YAP(S)PET scanner ([36]). Acquisition parameters for X-ray projections were X-ray tube voltage = 35 keV, anode current = 1 mA, exposure = 1 s, 64 views over 360, and magnification factor = 1.2. Subtraction of dark noise contribution and flat field corrections was accomplished to obtain final images. The CT data were reconstructed by using the FDK algorithm. Amide software ([37]) has been used for images’ registration, visualization and analysis. The size of the ROIs was voxels (100 mm^3 volume), corresponding to entire striatum. These ROIs were used as a template. To avoid the variability of the slice selection and to gain statistical power, the entire striatum volume for the analysis was used. The template was positioned manually (without changing the size and form of the ROIs) on the SPECT images with the backing of anatomical information from LONI MAP 2003 MRI mouse atlas ([38], [39]). For analysis of striatal [^123I]-FP-CIT binding, two consecutive horizontal slices (total thickness approximately 4 mm) with the highest striatal binding were selected. The landmarks for positioning were the intra-orbital glands, striatum, and the borders of the brain. Striatal binding ratios are expressed as average activity per unit volume [Bq/mm^3], each value has been calculated as the ratio between the activity inside the ROI and the ROI volume, normalized for injected activity and for mouse brain weight.

[2] = tested on: DA release in the nucleus accumbens (NAc) shell; experiment: In vivo brain microdialysis, NAc shell extracellular DA; design: species or system mouse; conditions: for increase of NAc shell extracellular DA levels (maximal/peak): JWH-018 0.3 mg/kg i.p. (long-lasting), AKB48 0.3 mg/kg i.p. (peak); for NAc shell extracellular DA levels: awake freely moving mice, i.p.: amphetamine 10 mg/kg, cocaine 20 mg/kg, JWH-018 0.3 mg/kg, AKB48 0.3 mg/kg
Description: Male ICR (CD-1®) mice, 25–30 g (ENVIGO. Harlan Italy; S. Pietro al Natisone, Italy) were anesthetized with Isoflurane (3%; 200 ml/min) and implanted with vertical dialysis probe (1 mm dialyzing portion) prepared with AN69 fibers (Hospal Dasco, Bologna, Italy) in the NAc shell (A + 1.4, L 0.4 from bregma, V-4.8 from dura) according to the mouse brain atlas by Paxinos and Franklin ([40]). On the day following surgery, probes were perfused with Ringer’s solution (147 mM NaCl, 4 mM KCl, 2.2 mM CaCl2) at a constant rate of 1 µl/min. Dialyzate samples (10 µl) were injected into an HPLC equipped with a reverse phase column (C8 3.5 um, Waters, USA) and a coulometric detector (ESA, Coulochem II) to quantify DA. The first electrode of the detector was set at +130 mV (oxidation) and the second at −175 mV (reduction). The composition of the mobile phase was as follows: 50 mM NaH2PO4, 0.1 mM Na2-EDTA, 0.5 mM n-octyl sodium sulfate, 15% (v/v) methanol, pH 5.5. […] At the end of each experiment, animals were sacrificed and their brains removed and stored in formalin (8%) for histological examination to verify the correct placement of the microdialysis probe.

[3] = tested on: spontaneous [3H]-DA efflux from mouse striatal synaptosomes; experiment: Spontaneous [3H]-DA release from striatal synaptosomes; assay type: biochemical; conditions: amphetamine 10 µM, cocaine 100 nM, JWH-018 and AKB48 100 nM and 1 µM
Description: as §1
After synaptosomal preparation, 0.5 ml aliquots of the suspension were distributed on microporous filters placed at the bottom of a set of parallel superfusion chambers maintained at 37°C and perfused with aerated (95% O2/5% CO2) Kreb’s solution (0.3 ml/min). After 30 min of superfusion to equilibrate the system, 5-min fractions were collected from the 30th to the 75th min (nine samples). […] At the end of the experiment, the radioactivity of the samples and filters was determined by liquid scintillation spectrometry (LS1800 Beckman). In view of the results obtained, in a separate set of experiments, [^3H]-DA uptake was also evaluated.

[4] = tested on: [3H]-DA uptake in mouse striatal synaptosomes; experiment: [3H]-DA uptake in striatal synaptosomes; assay type: biochemical; conditions: for effect on [3H]-DA uptake: GBR 12783 20 nM, JWH-018 and AKB48 100 nM and 1 µM; for reduction of [3H]-DA uptake: cocaine 1 µM, amphetamine 1 µM, added 5 min before 50 nM [3H]-DA, 10 min at 37°C
Description: as §1
After synaptosomal preparation, the suspension was maintained under a light and continuous oxygenation (95% O2, 5% CO2) for 20 min at 37°C. Thereafter, 0.5 ml aliquots of striatal synaptosomal suspension were prepared. […] After this period, the reaction was stopped by filtration through microporus nylon filters (0.45 µm, 13 mm; Analytical Technology, Brugherio, Italy). The filters were then washed with 1 ml ice-cold Kreb’s solution and the radioactivity accumulated on synaptosomes was extracted by eluting two times with 1 ml of warm NaOH (1 N) and then determined by liquid scintillation spectrometer. Non-specific uptake was measured by following the same procedure at 0°C.

[5] = biological target: CD-1 murine CB1 receptors; conditions: ref [6]; read-out: Ki for CB1 receptors, CD-1 murine preparation; cited from earlier work
[6] = tested on: dopamine (DA) transmission in the NAc shell; design: method as in PMID 26327678; conditions: 0.25 mg/kg i.p., not at 0.125 or 0.5 mg/kg i.p.; not in NAc core and mPFC; ref [9]; cited from earlier work
[7] = tested on: GABAA-mediated post-synaptic currents in VTA DA neurons; design: method as in PMID 26686391, PMID 25232109, PMID 28373077; conditions: rat VTA DA neurons, ex vivo; ref [26], [82], [83]; cited from earlier work

Compound	Ki (mouse DAT)	immobility time (male CD-1 mice)	total distance traveled (spontaneous locomotion) (male CD-1 mice)	duration of the increase of spontaneous locomotion (male CD-1 mice)	reduction of [123I]-FP-CIT binding in the striatum [1]	spontaneous [3H]-DA efflux from striatal synaptosomes [3]	spontaneous locomotion, antagonist by itself (male CD-1 mice)	other results
CCCCCn1nc(C(=O)NC23CC4CC(CC(C4)C2)C3)c2ccccc21 [AKB48, N-(1-adamantyl)-1-pentyl-1H-indazole-3-carboxamide]	> 10 µM	increased	facilitated the spontaneous locomotion only in the first 15 min	15 min	~ 42%	did not affect		Ki (human DAT): 4.59 µM; facilitation of spontaneous locomotion after pretreatment with AM 251 (male CD-1 mice): prevented; facilitation of spontaneous locomotion after coadministration of SCH23390 and haloperidol (male CD-1 mice): prevented; time in the central zone versus peripheral area of the cage (male CD-1 mice): spent more time in the central zone; time of peak extracellular DA level after administration ([2]; AKB48 0.3 mg/kg i.p.): 40 min; increase of NAc shell extracellular DA levels (maximal/peak) [2]: ~ 150 % of baseline values; NAc shell extracellular DA levels [2]: significantly increased; effect on [3H]-DA uptake [4]: ineffective; Ki [5]: 0.00534 µM
Cc1c(C(=O)NN2CCCCC2)nn(-c2ccc(Cl)cc2Cl)c1-c1ccc(I)cc1 [AM 251, reference compound]							did not alter the spontaneous locomotion	
CC(N)Cc1ccccc1 (stereo not drawn) [Amphetamine, reference compound]	0.622 ± 0.053 µM	reduced the immobility time	induced long-lasting increases		~ 25%	induced a significant increase		time spent in the peripheral arena (male CD-1 mice): increase the time spent in the peripheral arena; reduction of [3H]-DA uptake [4]: ~40%
COC(=O)[C@H]1[C@@H](OC(=O)c2ccccc2)C[C@@H]2CC[C@H]1N2C [Cocaine, reference compound]	0.193 ± 0.016 µM	reduced the immobility time	induced long-lasting increases	90 min	~ 40%	induced a significant increase		time spent in the peripheral arena (male CD-1 mice): increase the time spent in the peripheral arena; reduction of [3H]-DA uptake [4]: ~50%
C(=C\c1ccccc1)/CN1CCN(CCOC(c2ccccc2)c2ccccc2)CC1 [GBR 12783, 1-(2-benzhydryloxyethyl)-4-[(E)-3-phenylprop-2-enyl]piperazine;dihydrochloride, reference compound]								Ki (human DAT; 8 nM [3H]-WIN 35,428, 120 min at 4°C, mean ± SEM, read-out: hDAT-CHO membranes Ki): 0.00193 ± 0.00014 µM; Ki (mouse DAT; 8 nM [3H]-WIN 35,428, 120 min at 4°C, mean ± SEM, read-out: Mouse striatal synaptosomes Ki): 0.00172 ± 0.00011 µM
CCCCCn1cc(C(=O)c2cccc3ccccc23)c2ccccc21 [JWH-018, 1-pentyl-3-(1-naphthoyl)indole]	> 10 µM	reduced the immobility time	induced long-lasting increases	90 min	~ 39%	did not affect		Ki (human DAT): 7.18 µM; facilitation of spontaneous locomotion after pretreatment with AM 251 (male CD-1 mice): prevented; facilitation of spontaneous locomotion after coadministration of SCH23390 and haloperidol (male CD-1 mice): prevented; time in the central zone versus peripheral area of the cage (male CD-1 mice): spent more time in the central zone; increase of NAc shell extracellular DA levels (maximal/peak) [2]: ~ 150 % of baseline values; NAc shell extracellular DA levels [2]: significantly increased; effect on [3H]-DA uptake [4]: ineffective; Ki [5]: 0.00582 µM; dopamine (DA) transmission in the NAc shell [6]: increases; GABAA-mediated post-synaptic currents [7]: decreases
CN1CCc2cc(Cl)c(O)cc2C(c2ccccc2)C1 (stereo not drawn) [SCH23390, 8-chloro-3-methyl-5-phenyl-1,2,4,5-tetrahydro-3-benzazepin-7-ol, reference compound]							did not alter the spontaneous locomotion	
O=C(CCCN1CCC(O)(c2ccc(Cl)cc2)CC1)c1ccc(F)cc1 [haloperidol, 4-[4-(4-chlorophenyl)-4-hydroxypiperidin-1-yl]-1-(4-fluorophenyl)butan-1-one, reference compound]							did not alter the spontaneous locomotion	
